Assay results from ChEMBL document CHEMBL2021887, “Olean-18-ene triterpenoids from Celastraceae species inhibit HIV replication targeting NF-kB and Sp1 dependent transcription” (Eur J Med Chem, 2012).
Active and inactive are the calls of the source. The rule behind the calls is not given here.

Assays:
[1] = tested on: Human immunodeficiency virus 1; experiment: Antiviral activity against X4 tropic HIV1 pNL4.3-Ren infected in human MT2 cells at 10 uM dosed simultaneously with virus infection measured 48 hrs post-infection by recombinant virus assay; type: functional; conditions: Human immunodeficiency virus 1, pNL4.3-Ren, MT2, 48 h; values are per cent of control
MT2 [2] = experiment: Cytotoxicity against non-infected human MT2 cells at 10 uM after 48 hrs by CellTiter Glo assay; type: cell-based; conditions: mt2, 48 h
[3] = tested on: Human immunodeficiency virus 1; experiment: Antiviral activity against X4 tropic HIV1 pNL4.3-Ren infected in human MT2 cells dosed simultaneously with virus infection measured 48 hrs post-infection by recombinant virus assay; type: functional, organism-based; conditions: Human immunodeficiency virus 1, pNL4.3-Ren, MT2, 48 h
[4] = tested on: Human immunodeficiency virus 1; experiment: Antiviral activity against luciferase tagged VSV envelope pseudotyped HIV1 infected in human MT2 cells dosed simultaneously with virus infection measured 48 hrs post-infection by recombinant virus assay; type: functional, organism-based; conditions: Human immunodeficiency virus 1, MT2, 48 h
[5] = Cytotoxicity against non-infected human MT2 cells after 48 hrs by CellTiter Glo assay; type: cell-based
[6] = tested on: Human immunodeficiency virus 1; experiment: Inhibition of viral transcription in X4 tropic HIV1 pNL4.3-Luc transfected human MT2 cells at 20 uM dosed post transfection and measured 24 hrs post compound dose by luciferase reporter gene assay; type: functional; conditions: Human immunodeficiency virus 1, pNL4.3-Luc, MT2, 24 h; read-out: INH
MT2 [7] = experiment: Inhibition of NFkappaB transcription in X4 tropic HIV1 pNL4.3-Luc transfected human MT2 cells at 20 uM dosed post transfection and measured 24 hrs post compound dose by luciferase reporter gene assay; type: functional
MT2 [8] = experiment: Inhibition of Sp1 transcription in X4 tropic HIV1 pNL4.3-Luc transfected human MT2 cells at 20 uM dosed post transfection and measured 24 hrs post compound dose by luciferase reporter gene assay; type: functional

Row | SMILES | residual activity at 10 µM [1] [%] | Activity (MT2 [2]) [%] | IC50 [3] [µM] | IC50 [4] [µM] | CC50 at 48 h [5] [µM] | percent inhibition at 20 µM [6] [%] | inhibition (MT2 [7]) | inhibition (MT2 [8])
1 | CC1(C)C=C2[C@H]3CC[C@@H]4[C@@]5(C)CCC(=O)C(C)(C)[C@@H]5CC[C@@]4(C)[C@]3(C)CC[C@@]2(C)CC1=O | 14 | 222 | 4.04 | 3.2 | > 100 | < 50 | Active | Active
2 | CC1(C)C=C2[C@H]3C[C@@H](O)[C@@H]4[C@@]5(C)CC[C@H](O)C(C)(C)[C@@H]5CC[C@@]4(C)[C@]3(C)CC[C@@]2(CO)CC1 | 78 |  |  |  |  |  |  | 
3 | CC1(C)C(=O)CC[C@]2(C)[C@H]3CC[C@@H]4C5=C[C@](C)(CO)CC[C@]5(C)CC[C@@]4(C)[C@]3(C)CC[C@@H]12 | 50 |  |  |  |  |  |  | 
4 | CC1(C)C=C2[C@H]3CC[C@@H]4[C@@]5(C)CCC(=O)C(C)(C)[C@@H]5CC[C@@]4(C)[C@]3(C)CC[C@@]2(C)C[C@H]1O | 22 | 74 | 20 | 20 | > 100 | < 50 | Active | Active
5 | CC1(C)[C@@H](O)CC[C@]2(C)[C@H]3CC[C@@H]4C5=C[C@](C)(CO)CC[C@]5(C)CC[C@@]4(C)[C@]3(C)CC[C@@H]12 | 17 | 67 | 10.4 | 6.56 | > 100 | < 50 | Active | Active
6 | CC1(C)C=C2[C@H]3CC[C@@H]4[C@@]5(C)CC[C@H](O)C(C)(C)[C@@H]5[C@H](O)C[C@@]4(C)[C@]3(C)CC[C@@]2(C)CC1 | 1 | 5 | 11.6 | 4.32 | 25.5 |  |  | 
7 | CC(=O)OC[C@@]1(C)C=C2[C@H]3CC[C@@H]4[C@@]5(C)CCC(=O)C(C)(C)[C@@H]5CC[C@@]4(C)[C@]3(C)CC[C@@]2(C)CC1 | 116 | 116 |  |  |  |  |  | 
8 | CC1(C)C=C2[C@H]3C[C@@H](O)[C@@H]4[C@@]5(C)CC[C@H](O)C(C)(C)[C@@H]5CC[C@@]4(C)[C@]3(C)CC[C@@]2(C)CC1 [NIVADIOL] | 121 |  |  |  |  |  |  | 
9 | CC1(C)C=C2[C@H]3CC[C@@H]4[C@@]5(C)CC[C@H](O)C(C)(C)[C@@H]5CC[C@@]4(C)[C@]3(C)CC[C@@]2(C)CC1 [GERMANICOL] | 86 |  |  |  |  |  |  | 
10 | CC(=O)O[C@H]1CC[C@]2(C)[C@H]3CC[C@@H]4C5=CC(C)(C)[C@H](OC(C)=O)C[C@]5(C)CC[C@@]4(C)[C@]3(C)CC[C@H]2C1(C)C | 107 | 93 |  |  |  |  |  | 
11 | CC(=O)O[C@H]1CC[C@]2(C)[C@H]3CC[C@@H]4C5=CC(C)(C)CC[C@]5(C)CC[C@@]4(C)[C@]3(C)C[C@@H](O)[C@H]2C1(C)C | 102 | 124 |  |  |  |  |  | 
12 | CC1(C)C=C2[C@H]3CC[C@@H]4[C@@]5(C)CCC(=O)C(C)(C)[C@@H]5CC[C@@]4(C)[C@]3(C)CC[C@@]2(C)CC1 [GERMANICONE] | 84 |  |  |  |  |  |  | 
13 | CC1(C)C(=O)CC[C@]2(C)[C@H]3CC[C@@H]4C5=C[C@](C)(CO)CC[C@]5(C)CC[C@@]4(C)[C@]3(C)C[C@@H](O)[C@@H]12 | 16 | 62 | 65.6 | 20 | > 100 | < 50 | Active | Active
14 | CC1(C)C=C2[C@H]3CC[C@@H]4[C@@]5(C)CCC(=O)C(C)(C)[C@@H]5[C@H](O)C[C@@]4(C)[C@]3(C)CC[C@@]2(C)CC1 | 28 | 222 | 23.8 | 5.14 | > 100 | < 50 | Active | Active
15 | CC1(C)C=C2[C@H]3CC[C@@H]4[C@@]5(C)CC[C@H](O)C(C)(C)[C@@H]5CC[C@@]4(C)[C@]3(C)CC[C@@]2(C)C[C@H]1O | 18 | 69 | 64.4 | 54.3 | > 100 | < 50 | Active | Active
